In publication PMC3116920, “Mechanisms for the Evolution of a Derived Function in the Ancestral Glucocorticoid Receptor” (PLoS Genetics, 2011):
Residue numbers refer to the chain shown, from its start. Where two headings read alike, the source gives them in different places.

How the values were obtained:
Leri GR = target: T1, Leri GR (Leucoraja erinaceus, UniProt Q1KXY4); test: cell-based; parameters: species or system CHO-K1; Gal4DBD-LBD UAS-driven luciferase reporter transactivation, Dual-Glo read-out
T1 construct: LBD fused to Gal4 DBD in pSG5; CHO-K1 cells with UAS-luciferase
T1 sequence (Q1KXY4 1-317): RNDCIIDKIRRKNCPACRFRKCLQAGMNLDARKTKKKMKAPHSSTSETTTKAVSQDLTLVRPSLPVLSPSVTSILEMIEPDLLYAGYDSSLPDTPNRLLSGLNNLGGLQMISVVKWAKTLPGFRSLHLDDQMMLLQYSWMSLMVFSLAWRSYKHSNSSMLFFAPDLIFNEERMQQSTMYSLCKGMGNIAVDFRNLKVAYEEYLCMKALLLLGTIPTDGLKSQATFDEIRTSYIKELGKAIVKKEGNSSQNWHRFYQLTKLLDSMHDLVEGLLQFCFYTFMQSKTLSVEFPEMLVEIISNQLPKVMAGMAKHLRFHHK
Method: LBDs were cloned as fusion proteins into a pSG5-Gal4DBD expression vector (gift of D. Furlow) and cotransfected using Lipofectamine and Plus Reagents (Invitrogen, Carlsbad, CA) with a UAS-driven luciferase reporter gene (pFRluc) into mammalian cell culture (CHO-K1), and grown in phenol red-free α-MEM plus 10% dextran-charcoal-stripped fetal bovine serum (Hyclone, Logan, UT). Cells were incubated with transfection reagents for four hours, after which they were treated with fresh medium; after recovery, cells were treated in triplicate with hormone or vehicle control, and incubated for one day. Reporter expression was measured using Dual-Glo (Promega, Madison, WI) and dose-response relationships analyzed using Prism4 (GraphPad, La Jolla, CA). Site-directed mutagenesis was carried out using QuickChange II (Stratagene, La Jolla, CA) and clones verified by DNA sequencing. Plausible alternate states were defined as non-maximum likelihood amino acid states with posterior probability >0.20; we reasoned that residues that are present in one or more extant high-sensitivity receptors are the most likely to increase receptor sensitivity, whereas those that are present only in low-sensitivity receptors are unlikely to confer high sensitivity. Each such alternate state was introduced singly into the ML AncGR1.1, and the experimental characterization was repeated. We used a luciferase reporter gene expression assay to characterize the sensitivity of each LBD to four major corticosteroids present in elasmobranchs – 11-deoxycorticosterone (DOC), corticosterone, 1alpha-hydroxycorticosterone, and 11-dehydrocorticosterone, [35]. […] All hormone-activated cartilaginous fish GRs were most sensitive to DOC and corticosterone. The receptors had EC50 values (the hormone concentration required to elicit half-maximal activation) for these steroids in the 10^−8 to 10^−6 M range (Figure 2, Table S1), typical of the EC50s of bony fish GRs for glucocorticoids but two to four orders of magnitude greater than AncCR or the MRs of bony vertebrates. […]

AncCR [1] = target: T2, AncCR (synthetic construct, UniProt Z9R9E8A6B0, S74C/K86Q, form not given); test: luciferase reporter gene activation (Gal4DBD-LBD); format: cell-based; details: CHO-K1 cells, agonist, one day, triplicate; error is SE
T2 construct: LBD fused to Gal4 DBD in pSG5; CHO-K1 cells with UAS-luciferase
T2 sequence (Z9R9E8A6B0 4-249 S74C/K86Q): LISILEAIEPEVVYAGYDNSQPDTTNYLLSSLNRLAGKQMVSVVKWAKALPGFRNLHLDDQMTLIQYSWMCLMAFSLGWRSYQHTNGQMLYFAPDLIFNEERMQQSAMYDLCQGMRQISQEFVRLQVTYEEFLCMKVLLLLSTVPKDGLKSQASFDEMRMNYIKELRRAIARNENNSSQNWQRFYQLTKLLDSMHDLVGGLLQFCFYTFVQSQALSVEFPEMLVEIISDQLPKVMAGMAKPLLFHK
Text: (§1) luciferase reporter gene activation (Gal4DBD-LBD) on AncCR

AncCR [2] = target: T3, AncCR (synthetic construct, UniProt Z9R9E8A6B0, L4M/S74C, form not given); test: luciferase reporter gene activation (Gal4DBD-LBD); format: cell-based; details: CHO-K1 cells, agonist, one day, triplicate; error is SE
T3 construct: LBD fused to Gal4 DBD in pSG5; CHO-K1 cells with UAS-luciferase
T3 sequence (Z9R9E8A6B0 4-249 L4M/S74C): T2 sequence (Z9R9E8A6B0 4-249 S74C/K86Q) with L1M, Q83K
Text: as §1

AncCR [3] = target: T4, AncCR (synthetic construct, UniProt Z9R9E8A6B0, S74C, form not given); test: luciferase reporter gene activation (Gal4DBD-LBD); format: cell-based; details: CHO-K1 cells, agonist, one day, triplicate; error is SE
T4 construct: LBD fused to Gal4 DBD in pSG5; CHO-K1 cells with UAS-luciferase
T4 sequence (Z9R9E8A6B0 4-249 S74C): T2 sequence (Z9R9E8A6B0 4-249 S74C/K86Q) with Q83K
Text: as §1

AncCR [4] = target: T5, AncCR (synthetic construct, UniProt Z9R9E8A6B0); test: luciferase reporter gene activation (Gal4DBD-LBD); format: cell-based; details: CHO-K1 cells, agonist, one day, triplicate; error is SE
T5 construct: LBD fused to Gal4 DBD in pSG5; CHO-K1 cells with UAS-luciferase
T5 sequence (Z9R9E8A6B0 4-249): T2 sequence (Z9R9E8A6B0 4-249 S74C/K86Q) with C71S, Q83K
Text: as §1

AncCR [5] = target: T6, AncCR (synthetic construct, UniProt Z9R9E8A6B0, S74C/Q116K, form not given); test: luciferase reporter gene activation (Gal4DBD-LBD); format: cell-based; details: CHO-K1 cells, agonist, one day, triplicate; error is SE
T6 construct: LBD fused to Gal4 DBD in pSG5; CHO-K1 cells with UAS-luciferase
T6 sequence (Z9R9E8A6B0 4-249 S74C/Q116K): T2 sequence (Z9R9E8A6B0 4-249 S74C/K86Q) with Q83K, Q113K
Text: as §1

AncCR [6] = target: T7, AncCR (synthetic construct, UniProt Z9R9E8A6B0, S74C/A110S, form not given); test: luciferase reporter gene activation (Gal4DBD-LBD); format: cell-based; details: CHO-K1 cells, agonist, one day, triplicate; error is SE
T7 construct: LBD fused to Gal4 DBD in pSG5; CHO-K1 cells with UAS-luciferase
T7 sequence (Z9R9E8A6B0 4-249 S74C/A110S): T2 sequence (Z9R9E8A6B0 4-249 S74C/K86Q) with Q83K, A107S
Text: as §1

AncCR [7] = target: T8, AncCR (synthetic construct, UniProt Z9R9E8A6B0, S74C/R119H, form not given); test: luciferase reporter gene activation (Gal4DBD-LBD); format: cell-based; details: CHO-K1 cells, agonist, one day, triplicate; error is SE
T8 construct: LBD fused to Gal4 DBD in pSG5; CHO-K1 cells with UAS-luciferase
T8 sequence (Z9R9E8A6B0 4-249 S74C/R119H): T2 sequence (Z9R9E8A6B0 4-249 S74C/K86Q) with Q83K, R116H
Text: as §1

AncCR [8] = target: T9, AncCR (synthetic construct, UniProt Z9R9E8A6B0, V46A/S74C/R119H, form not given); test: luciferase reporter gene activation (Gal4DBD-LBD); format: cell-based; details: CHO-K1 cells, agonist, one day, triplicate; error is SE
T9 construct: LBD fused to Gal4 DBD in pSG5; CHO-K1 cells with UAS-luciferase
T9 sequence (Z9R9E8A6B0 4-249 V46A/S74C/R119H): T2 sequence (Z9R9E8A6B0 4-249 S74C/K86Q) with V43A, Q83K, R116H
Text: as §1

AncCR [9] = target: T10, AncCR (synthetic construct, UniProt Z9R9E8A6B0, S74C/Q214E, form not given); test: luciferase reporter gene activation (Gal4DBD-LBD); format: cell-based; details: CHO-K1 cells, agonist, one day, triplicate; error is SE
T10 construct: LBD fused to Gal4 DBD in pSG5; CHO-K1 cells with UAS-luciferase
T10 sequence (Z9R9E8A6B0 4-249 S74C/Q214E): T2 sequence (Z9R9E8A6B0 4-249 S74C/K86Q) with Q83K, Q211E
Text: as §1

AncCR [10] = target: T11, AncCR (synthetic construct, UniProt Z9R9E8A6B0, V46A/S74C, form not given); test: luciferase reporter gene activation (Gal4DBD-LBD); format: cell-based; details: CHO-K1 cells, agonist, one day, triplicate; error is SE
T11 construct: LBD fused to Gal4 DBD in pSG5; CHO-K1 cells with UAS-luciferase
T11 sequence (Z9R9E8A6B0 4-249 V46A/S74C): T2 sequence (Z9R9E8A6B0 4-249 S74C/K86Q) with V43A, Q83K
Text: as §1

AncCR [11] = target: T12, AncCR (synthetic construct, UniProt Z9R9E8A6B0, V46A/R119H, form not given); test: luciferase reporter gene activation (Gal4DBD-LBD); format: cell-based; details: CHO-K1 cells, agonist, one day, triplicate; error is SE
T12 construct: LBD fused to Gal4 DBD in pSG5; CHO-K1 cells with UAS-luciferase
T12 sequence (Z9R9E8A6B0 4-249 V46A/R119H): T2 sequence (Z9R9E8A6B0 4-249 S74C/K86Q) with V43A, C71S, Q83K, R116H
Text: as §1

## C[C@]12C[C@H](O)[C@H]3[C@@H](CCC4=CC(=O)C[C@H](O)[C@@]43C)[C@@H]1CC[C@@H]2C(=O)CO [1α-B, 1α-hydroxycorticosterone]
Leri GR; read-out: 1α-B log EC50 (converted)
  EC50: 2000 nM

## C[C@]12CC[C@H]3[C@@H](CCC4=CC(=O)CC[C@@]43C)[C@@H]1CC[C@@H]2C(=O)CO [DOC, 11-deoxycorticosterone]
Leri GR; read-out: DOC log EC50 (converted)
  EC50: 305 nM
AncCR [1]
  log EC50 ^b: −10.330 ± 0.41 log10 M
AncCR [2]
  log EC50 ^b: −10.250 ± 0.30 log10 M
AncCR [3]
  log EC50 ^b: −10.870 ± 0.34 log10 M
AncCR [4]
  log EC50 ^b: −10.690 ± 0.64 log10 M
AncCR [5]
  log EC50 ^b: −9.773 ± 0.43 log10 M
AncCR [6]
  log EC50 ^b: −10.350 ± 0.24 log10 M
AncCR [7]
  log EC50 ^b: −8.812 ± 0.28 log10 M
AncCR [8]
  log EC50 ^b: −6.418 ± 0.06 log10 M
AncCR [9]
  log EC50 ^b: −10.170 ± 0.43 log10 M
AncCR [10]
  log EC50 ^b: −8.443 ± 0.15 log10 M
AncCR [11]
  log EC50 ^b: −8.387 ± 0.54 log10 M

## C[C@]12C[C@H](O)[C@H]3[C@@H](CCC4=CC(=O)CC[C@@]43C)[C@@H]1CC[C@@H]2C(=O)CO [B, corticosterone]
Leri GR; read-out: B log EC50 (converted)
  EC50: 28.3 nM
